Data reported in patent publication US20040023884A1, “Biologically active peptides from functional domains of bactericidal/permeability-increasing protein and uses thereof” (priority 1993, published 2004).
Ends that are not written are not given here.

Key:
[1] = tested on: L-form of S. aureus ATCC 19640; assay: Activity against L-forms of gram-positive bacteria; type: cell-based
Protocol: The bactericidal capacity of BPI peptides provided by the invention was also tested against Gram-positive bacteria (See Table VIII A). […] In addition, peptides were tested for their activity against L-forms of gram-positive bacteria, such as the L-form of S. aureus ATCC 19640.

[2] = tested on: Klebsiella pneumoniae 19645; assay: Radial diffusion bactericidal assay, antibiotic resistant Klebsiella pneumoniae 19645; type: cell-based
Protocol: These studies were conducted substantially following the procedures used in Example 2.
In order to test the bactericidal activity of BPI peptides on antibiotic resistant strains of Klebsiella pneumoniae, the multi-resistant clinically isolated strain 19645 was tested as in Example 2 and above. […] This strain was obtained from the Baxter Microscan® library (Sacramento, Calif.). An overnight culture of Klebsiella pneumoniae 19645 and a non-resistant strain (ATCC 29011) were diluted 1:50 into fresh tryptic soy broth and incubated for 3 hours at 37° C. to attain log phase. The overnight cultures were tested as described in Example 2 and part A above.

E. coli O18:K1:H7 = assay: Radial diffusion bactericidal assay, E. coli O18:K1:H7; type: cell-based; settings: FIG. 11b; up to about 2000 pmol
Pseudomonas aeruginosa = assay: Radial diffusion bactericidal assay, Pseudomonas aeruginosa; type: cell-based; settings: FIG. 11a; up to about 2000 pmol
E. coli O75 = assay: Radial diffusion bactericidal assay, E. coli O75; type: cell-based; settings: FIG. 11d; up to about 2000 pmol
ATIII/heparin complexes = assay: Thrombin inactivation by ATIII/heparin complexes (Chromostrate anti-thrombin assay); type: biochemical; settings: 1.0 to 100 μg/mL
Protocol: BPI functional domain peptides BPI.2, BPI.3, BPI.4, BPI.5, BPI.6, and BPI.8, along with rBPI23 as a positive control, were assayed for their effect on thrombin inactivation by ATIII/heparin complexes according to the method of Example 3 in copending and co-assigned U.S. patent application Ser. No. 08/093,202, filed Jul. 15, 1993, incorporated by reference. Specifically, a Chromostrate™ anti-thrombin assay kit (Organon Teknika Corp., Durham, N.C.) was used to examine the inhibition of purified thrombin by preformed ATIII/heparin complexes in plasma.
Briefly, the assay was performed in 96 well microtiter plates in triplicate with a final volume per well of 200 μL. Varying concentrations of the BPI functional domain peptides ranging from 1.0 μg/mL to 100 μg/mL were assayed to determine their effect on thrombin inhibition in the presence of pre-formed ATIII/heparin complexes. The order of addition of assay components was as follows: 1) a dilution series of rBPI23 or BPI functional domain peptides or thaumatin as a control protein, with final concentrations of 100, 50, 25, 10 and 1 μg/well, diluted in PBS in a final volume of 50 μL; 2) 50 μL plasma diluted 1:100 in a buffer supplied by the manufacturer, 3) 50 μl thrombin at 1 nKat/mL in a buffer supplied by the manufacturer, and 4) 50 μL chromogenic substrate at a concentration of 1 μmol/mL in water. The reaction was allowed to proceed for 10 minutes at 37° C. and stopped with the addition of 50 μL 0.1M citric acid. The colorimetric reaction was quantitated on a microplate reader as described in Example 3.

E. coli 0111:B4 (smooth) = assay: Broth antibacterial assay, E. coli 0111:B4; type: cell-based
Protocol: In additional experiments, broth antibacterial assays were conducted to further determine the bactericidal activity of certain of the BPI peptides. Specifically, either E. coli J5 (rough) or E. coli 0111:B4 (smooth) bacteria were selected from single colonies on agar plates and used to inoculate 5 mL of Mueller Hinton broth and incubated overnight at 37° C. with shaking. The overnight culture was diluted (˜1:50) into 5 mL fresh broth and incubated at 37° C. to log phase (˜3 hours). Bacteria were pelleted for 5 minutes at 3000 rpm (1500×g). Bacterial pellets were resuspended in 5 mL PBS and diluted to 2×10^6 cells/mL in the Mueller Hinton broth (wherein 1 OD570 unit equals 1.25×10^9 CFU/mL). The BPI functional domain peptides to be tested were diluted to 200 μg/mL in broth and serially diluted 2-fold in 96 well culture plates (100 μL volume). All items were at 2-fold final concentration and experiments were conducted in triplicate. Bacteria were added at 100 μL/well and the plates were incubated on a shaker at 37° C. for a 20 hour period. The plates were then read on an ELISA plate multiple reader at 590 nm. One of the triplicate wells from each peptide concentration was selected for colony forming unit (CFU) determination. A 30 μL aliquot was added to 270 μL of PBS and further ten-fold serial dilutions were performed. Then a 50 μL aliquot was plated on tryptic soy agar and incubated overnight. Colonies were counted and final bacterial concentrations determined. The results of these assays are depicted in FIGS. 9e (for E. coli J5) and 9f (for E. coli 0111:B4).

E. coli O86a:K61 = assay: Broth bactericidal assay, E. coli O86a:K61; type: cell-based; settings: FIG. 11j
[3] = Binding of [125I]-RaLPS to peptides pre-bound to HUVEC cells; type: cell-based, human; settings: 1 μg/mL or 3 μg/mL peptide
Protocol: In a third binding assay, a number of BPI functional domain peptides were tested for their ability to bind to radiolabeled LPS following incubation with human endothelial cells (HUVEC). This assay measures the ability to bind LPS once the BPI peptides are bound to HUVEC cells. HUVEC cells were incubated in the presence of various BPI peptides at a concentration of either 1 μg/mL or 3 μg/mL for 3 hr at 4° C. in 500 μL of a solution of D-PBS/BSA. Following this incubation, the cells were washed twice with ice-cold D-PBS/BSA and then incubated for an additional 2.5 hr at 4° C. in 500 μL of a solution of [^125I]-RaLPS (a total of 340,000 cpm at a specific activity of 4.6×10^6 cpm/μg) in D-PBS/BSA. The wells were washed three times with D-PBS/BSA, solubilized in 500 μL of 1M NaOH and the lysates counted using a gamma counter.

E. coli 86a:K61 = assay: Bactericidal assay performed in human serum, E. coli O86a:K61; type: cell-based; settings: FIG. 11l
Text: FIG. 11l is a graph showing the results of BPI functional domain peptide BPI.30 in bactericidal assays performed in human serum;

Substance | activity against L-form bacteria (in words) [1] | bactericidal activity (in words) [2] | bactericidal activity (in words) (E. coli O18:K1:H7) | bactericidal activity (in words) (Pseudomonas aeruginosa) | bactericidal activity (in words) (E. coli O75) | heparin neutralization effect (in words) (ATIII/heparin complexes) | bactericidal activity (in words) (E. coli 0111:B4 (smooth)) | LPS binding while bound to HUVEC cells (in words) [3] | further results
KWKAAARFLKKWKAAARFLK [BPI.48] | active against these L-form bacteria | active against antibiotic resistant Klebsiella |  |  |  |  |  |  | 
KSKVGWLIQLFHKK-NH2 (C-terminus assumed) [BPI.13] | active against these L-form bacteria |  | showed bactericidal activity | showed bactericidal activity | showed bactericidal activity |  |  |  | 
KWKAQKRFLKKWKAQKRFLK-NH2 (C-terminus assumed) [BPI.7] |  | active against antibiotic resistant Klebsiella |  |  |  | significant heparin neutralization effects | significant bactericidal activity |  | 
NVGLKFSISNANIKISGKWKAQKRFLK [BPI.3] |  |  |  |  |  | most significant heparin neutralization effects | less activity |  | 
KWKAQKRFLKKSKVGWLIQLFHKK-NH2 (C-terminus assumed) [BPI.30] |  |  | showed bactericidal activity | showed bactericidal activity | showed bactericidal activity |  |  | retain the capacity to bind LPS while bound to HUVEC cells | bactericidal activity (in words) (E. coli O86a:K61): showed bactericidal activity; bactericidal activity (in words) (E. coli 86a:K61): showed bactericidal activity
KSKVGWLIQLFHKKKSKVGWLIQLFHKK-NH2 (C-terminus assumed) [BPI.29] |  |  |  |  |  |  |  | retain the capacity to bind LPS while bound to HUVEC cells | 
